Results taken from ChEMBL document CHEMBL4665782, “Furostanol Saponins from Trillium tschonoskii Promote the Expansion of Human Cord Blood Hematopoietic Stem and Progenitor Cells” (2020).
Active and inactive are the calls of the source. The calls are words filed in the database; no cut-off is given here.

Legend:
[1] = Expansion of human CD34+cells measured after 4 days by FACS analysis; assay type: functional, CD34-positive (myeloid/lymphoid) cell
[2] = Expansion-promoting activity against human CD34+ cells assessed as increase in Lin-CD34+CD38-CD45RA-CD49f+CD90- multipotent progenitor cells measured after 4 days by FACS analysis relative to control; assay type: functional, CD34-positive (myeloid/lymphoid) cell
[3] = system: CD34-positive (myeloid/lymphoid) cell; experiment: Expansion-promoting activity against human CD34+ cells assessed as increase in Lin-CD34+CD38-CD45RA-CD49f-CD90- multipotent progenitor cells measured after 4 days by FACS analysis; assay type: functional, cell-based
[4] = system: CD34-positive (myeloid/lymphoid) cell; experiment: Expansion-promoting activity against human CD34+cells assessed as increase in CD34+/CD38- cells measured after 4 days by FACS analysis; assay type: functional, cell-based

C[C@H](CC[C@@]1(O)OC2C[C@H]3[C@@H]4C[C@@H](O)[C@@]5(O)C[C@@H](O[C@@H]6O[C@H](CO)[C@@H](O[C@@H]7O[C@@H](C)[C@H](O[C@@H]8O[C@@H](C)[C@H](O)[C@@H](O)[C@H]8O)[C@@H](O)[C@H]7O)[C@H](O)[C@H]6O[C@@H]6O[C@@H](C)[C@H](O)[C@@H](O)[C@H]6O)CC[C@]5(C)[C@H]4CC[C@]3(C)[C@@]2(O)[C@@H]1C)CO[C@@H]1O[C@H](CO)[C@@H](O)[C@H](O)[C@H]1O (some centres undefined)
fold change (FC) [1]: 8.4 | fold change (FC) [2]: 1.8 | Activity [3]: Active

C/C(C(=O)CC[C@@H](C)CO[C@@H]1O[C@H](CO)[C@@H](O)[C@H](O)[C@H]1O)=C1/C(=O)C[C@H]2[C@@H]3CC=C4C[C@@H](O[C@@H]5O[C@H](CO)[C@@H](O[C@@H]6O[C@@H](C)[C@H](O)[C@@H](O)[C@H]6O)[C@H](O)[C@H]5O[C@@H]5O[C@@H](C)[C@H](O)[C@@H](O)[C@H]5O)CC[C@]4(C)[C@H]3CC[C@]12C
Activity [3]: Active

C/C(C(=O)CC[C@@H](C)CO[C@@H]1O[C@H](CO)[C@@H](O)[C@H](O)[C@H]1O)=C1/C(=O)C[C@H]2[C@@H]3C(=O)C=C4C[C@@H](O[C@@H]5O[C@H](CO)[C@@H](O[C@@H]6O[C@@H](C)[C@H](O)[C@@H](O)[C@H]6O)[C@H](O)[C@H]5O[C@@H]5O[C@@H](C)[C@H](O)[C@@H](O)[C@H]5O)CC[C@]4(C)[C@H]3CC[C@]12C
Activity [4]: Active

C[C@H](CCC(=O)[C@@H](C)C1C(=O)C[C@H]2[C@@H]3CC=C4C[C@@H](O[C@@H]5O[C@H](CO)[C@@H](O[C@@H]6O[C@@H](C)[C@H](O)[C@@H](O)[C@H]6O)[C@H](O)[C@H]5O[C@@H]5O[C@@H](C)[C@H](O)[C@@H](O)[C@H]5O)CC[C@]4(C)[C@H]3CC[C@]12C)CO[C@@H]1O[C@H](CO)[C@@H](O)[C@H](O)[C@H]1O (some centres undefined)
Activity [4]: Active | Activity [3]: Active

C[C@H](CC[C@@]1(O)OC2C[C@H]3[C@@H]4C[C@@H](O)[C@@]5(O)C[C@@H](O[C@@H]6O[C@H](CO)[C@@H](O)[C@H](O)[C@H]6O[C@@H]6O[C@@H](C)[C@H](O)[C@@H](O)[C@H]6O)CC[C@]5(C)[C@H]4CC[C@]3(C)[C@@]2(O)[C@@H]1C)CO[C@@H]1O[C@H](CO)[C@@H](O)[C@H](O)[C@H]1O (some centres undefined)
Activity [3]: Active

C[C@H](CC[C@@]1(O)OC2C[C@H]3[C@@H]4CC=C5C[C@@H](O[C@@H]6O[C@H](CO)[C@@H](O[C@@H]7O[C@H](CO)[C@H](O)[C@@H](O)[C@H]7O)[C@H](O)[C@H]6O[C@@H]6O[C@@H](C)[C@H](O)[C@@H](O)[C@H]6O)CC[C@]5(C)[C@H]4CC[C@]3(C)[C@@]2(O)[C@@H]1C)CO[C@@H]1O[C@H](CO)[C@@H](O)[C@H](O)[C@H]1O (some centres undefined)
fold change (FC) [1]: 8.8 | fold change (FC) [2]: 1.9 | Activity [4]: Active | Activity [3]: Active

CC1=C2[C@](O)(C[C@H]3[C@@H]4C[C@@H](O)[C@@]5(O)C[C@@H](O[C@@H]6O[C@H](CO)[C@@H](O[C@@H]7O[C@@H](C)[C@H](O[C@@H]8O[C@@H](C)[C@H](O)[C@@H](O)[C@H]8O)[C@@H](O)[C@H]7O)[C@H](O)[C@H]6O[C@@H]6O[C@@H](C)[C@H](O)[C@@H](O)[C@H]6O)CC[C@]5(C)[C@H]4CC[C@]23C)C(C[C@@H](C)CO[C@@H]2O[C@H](CO)[C@@H](O)[C@H](O)[C@H]2O)C1=O (some centres undefined)
fold change (FC) [1]: 6.7 | fold change (FC) [2]: 1.3 | Activity [4]: Active | Activity [3]: Active

CC1=C2[C@](O)(C[C@H]3[C@@H]4C[C@@H](O)[C@@]5(O)C[C@@H](O[C@@H]6O[C@H](CO)[C@@H](O[C@@H]7O[C@@H](C)[C@H](O)[C@@H](O)[C@H]7O)[C@H](O)[C@H]6O[C@@H]6O[C@@H](C)[C@H](O)[C@@H](O)[C@H]6O)CC[C@]5(C)[C@H]4CC[C@]23C)C(C[C@@H](C)CO[C@@H]2O[C@H](CO)[C@@H](O)[C@H](O)[C@H]2O)C1=O (some centres undefined)
Activity [4]: Active | Activity [3]: Active

Cc1c(CC[C@@H](C)CO[C@@H]2O[C@H](CO)[C@@H](O)[C@H](O)[C@H]2O)oc2c1[C@@]1(C)CC[C@H]3[C@@H](C[C@@H](O)[C@@]4(O)C[C@@H](O[C@@H]5O[C@H](CO)[C@@H](O[C@@H]6O[C@@H](C)[C@H](O[C@@H]7O[C@@H](C)[C@H](O)[C@@H](O)[C@H]7O)[C@@H](O)[C@H]6O)[C@H](O)[C@H]5O[C@@H]5O[C@@H](C)[C@H](O)[C@@H](O)[C@H]5O)CC[C@]34C)[C@@H]1C2
fold change (FC) [1]: 7.7 | fold change (FC) [2]: 1.6 | Activity [4]: Active | Activity [3]: Active

Cc1c(CC[C@@H](C)CO[C@@H]2O[C@H](CO)[C@@H](O)[C@H](O)[C@H]2O)oc2c1[C@@]1(C)CC[C@H]3[C@@H](CC=C4C[C@@H](O[C@@H]5O[C@H](CO)[C@@H](O)[C@H](O)[C@H]5O[C@@H]5O[C@@H](C)[C@H](O)[C@@H](O)[C@H]5O)CC[C@@]43C)[C@@H]1C2
fold change (FC) [1]: 5.5 | fold change (FC) [2]: 0.9 | Activity [4]: Active | Activity [3]: Active

C/C(C(=O)CC[C@@H](C)CO[C@@H]1O[C@H](CO)[C@@H](O)[C@H](O)[C@H]1O)=C1/C(=O)C[C@H]2[C@@H]3CC=C4C[C@@H](O[C@@H]5O[C@H](CO)[C@@H](O)[C@H](O)[C@H]5O[C@@H]5O[C@@H](C)[C@H](O)[C@@H](O)[C@H]5O)CC[C@]4(C)[C@H]3CC[C@]12C
fold change (FC) [1]: 5.7 | fold change (FC) [2]: 1 | Activity [4]: Active | Activity [3]: Active

C[C@H](CCC(=O)[C@@H](C)C1C(=O)C[C@H]2[C@@H]3CC=C4C[C@@H](O[C@@H]5O[C@H](CO)[C@@H](O)[C@H](O)[C@H]5O[C@@H]5O[C@@H](C)[C@H](O)[C@@H](O)[C@H]5O)CC[C@]4(C)[C@H]3CC[C@]12C)CO[C@@H]1O[C@H](CO)[C@@H](O)[C@H](O)[C@H]1O (some centres undefined)
fold change (FC) [1]: 8.4 | fold change (FC) [2]: 1.8 | Activity [4]: Active | Activity [3]: Active
